# Measured values reported in ChEMBL document CHEMBL1146480, “Antimycobacterial Naphthopyrones from Senna obliqua” (2004).
# Tests used:
# [1] = test system: Mycobacterium tuberculosis; assay: Antimycobacterial activity against Mycobacterium tuberculosis ATCC 27294 in radiometric culture at 50 ug/ml by NCCLS method; format: functional
# [2] = test system: Mycobacterium tuberculosis; assay: Antimycobacterial activity against Mycobacterium tuberculosis ATCC 27294 in radiometric culture by NCCLS method; format: functional
smiles,measurement,setting,value
COc1cc(O)c2c(O)c3c(=O)cc(C)oc3cc2c1 [RUBROFUSARIN],inhibition at 50 µg/mL,[1],99%
same,MIC,[2],12 µg/mL
COc1cc(O)c2c(O)c3c(=O)cc(C)oc3cc2c1C [QUINQUANGULIN],inhibition at 50 µg/mL,[1],99%
same,MIC,[2],12 µg/mL
